# Columns and labels:
# [1] = tested on: 3T3-L1 cells; assay: MTT test, 3T3-L1; type: cell-based, murine; conditions: 10 μmol·L−1, 24 h
# Method: (§1) An MTT test provides an indication of cell viability, proliferation and activity through determination of the mitochondrial conversion of 3-(4,5-dimethylthiazol-2-yl)-2,5-diphenyltetrazolium bromide (MTT), a yellow salt, into formazan, a salt that precipitates under the form of blue crystals.
# (§2) In concreto, 5,000 cells are seeded in a cup of a 96 well-plate, treated with the desired amount of the test substance, and incubated for a chosen period of time. Next, 40 μL of a filtered (0.2 μm) 5 mg·mL^−1 solution of MTT in PBS is added to the cup. After 2 h of incubation at 37° C. in the dark, all liquid is removed. The obtained formazan salts are dissolved in 200 μL of DMSO, whereupon optical density is measured at 490 nm.
# (§3) In order to verify whether the antiproliferative effects of compound 49, witnessed in BLM and MCF-7/6 cells at high concentrations, were cell specific, additional SRB and MTT assays on a further five cell lines (HCT8-E11, TR146, FaDu, 3T3-L1 and CT5.3) were conducted (FIG. 8). The results for MCF-7/6 cells were added to facilitate comparison.
# (§4) The CT5.3 cell line consists of human myofibroblasts which were isolated from a colon tumor (Van Hoorde et al., 1999). 3T3-L1 cells are murine fibroblasts, originating from embryo's of Swiss mice (Todaro and Green, 1963). HCT8-E11, FaDu and TR146 are human epithelial cancer cell lines. […]
# [2] = tested on: MCF-7/6 cells; assay: MTT test, MCF-7/6; type: cell-based, human; conditions: for decrease in mitochondrial activity: FIG. 5
# Method: as §1, §2
# The effects of some chalcone-like compounds on the proliferation of MCF-7/6 cells were investigated. A commonly used method to quantify the metabolic activity of cells and thus to a certain degree cell viability—is the MTT assay. This test provides a measure of mitochondrial activity, as it assesses the reduction of 3-(4,5-dimethylthiazol-2-yl)-2,5-diphenyltetrazolium bromide (MTT), a yellow tetrazole, to the purple formazan; this transformation occurs in the mitochondria of living cells (Mosmann T., 1983).
# Thus, the influence of 13 compounds on the mitochondrial activity of MCF-7/6 cells was determined at 3 different concentrations, both after 24 and 48 h of incubation. Assessment of the mitochondrial activity after 192 h of incubation, which would correspond to the duration of the CHI assay, was not possible as the degree of confluence of the cells was too high at that time point.
# The antiproliferative effects of 4-fluoro-3′,4′,5′-trimethoxychalcone on MCF-7/6 cells were further assessed in the MTT assay upon prolonged incubation, as this would provide a higher degree of relevance to the CHI assay, which has an 8-day incubation period. As mentioned above, cell confluence was too high after 192 h; therefore, an incubation time of 144 h was considered a good compromise.
# [3] = tested on: CT5.3 myofibroblasts; assay: SRB test, CT5.3; type: cell-based, human; conditions: 10 μmol·L−1, 24 h, decreasing trend, not significant
# Method: (§5) The SRB assay is used to evaluate growth effects on cells, and measures the total protein content. In this test, 5,000 cells are seeded in a cup of a 96-well plate. Upon a 24 h-attachment period, cells are treated with a certain amount of the test molecule (dissolved in DMSO). After a pre-chosen incubation time, cells are fixed with 50 μL of 50% trichloroacetic acid (2° C., 1 h). Afterward, the plate is rinsed five times with tap water, and air dried overnight.
# (§6) Next, proteins are stained with 75 μL of a 0.4% solution of SRB in AcOH (30 min). Unbound SRB is subsequently removed by washing with a 1% solution of glacial AcOH, whereupon the plate is air dried. Then, bound SRB is redissolved in 100 μL of a 10 mmol·L^−1 tris(hydroxymethyl)aminomethane (Tris) buffer (pH=10.5), after which optical density is determined at 490 nm with a spectrophotometer.
# as §3
# (§7) The CT5.3 cell line consists of human myofibroblasts which were isolated from a colon tumor (Van Hoorde et al., 1999). […]
# [4] = tested on: BLM melanoma cells; assay: SRB test, BLM; type: cell-based
# Method: as §5, §6
# As 4-fluoro-3′,4′,5′-trimethoxychalcone had exerted an anti-invasive activity on BLM melanoma cells in the Matrigel invasion assay, we were intrigued to verify how its effect on the viability of BLM cells would compare to that observed for the MCF-7 cell lines.
# [5] = tested on: FaDu cells; assay: MTT test, FaDu; type: cell-based, human
# Method: as §1, §2, §3, §4
# [6] = tested on: HCT8-E11 colon carcinoma cells; assay: SRB test, HCT8-E11; type: cell-based, human
# Method: as §5, §6, §3, §7
# [7] = tested on: 3T3-L1 cells; assay: SRB test, 3T3-L1; type: cell-based, murine; conditions: 10 μmol·L−1, 24 h, decreasing trend, not significant
# Method: as §5, §6, §3, §7
# [8] = tested on: MCF-7/LucF5 cells; assay: MTT test, MCF-7/LucF5; type: cell-based, human
# Method: as §1, §2
# In order to further validate the use of the MCF-7/LucF5 cells in our in vivo experiments, the effects of 4-fluoro-3′,4′,5′-trimethoxychalcone on this cell line in the MTT and SRB assays were determined as well (Van Hoorde L. et al., 1999).
# [9] = elevated concentrations 10-100 μmol·L−1, summary
structure (smiles),measurement,setting,value
"COc1cc(C(=O)/C=C/c2ccc(F)cc2)cc(OC)c1OC [Compound 49, (2E)-3-(4-Fluorophenyl)-1-(3,4,5-trimethoxyphenyl)propenone]",reduction in mitochondrial activity,[1],30%
same,mitochondrial activity relative to solvent control,"[2]; 0.1 μmol·L−1, FIG. 6",increased significantly
same,mitochondrial activity,"[2]; 1 μmol·L−1, 24 h","the same trend, but without significance"
same,decrease in mitochondrial activity,"[2]; 5 μmol·L−1, 24 h",35%
same,decrease in mitochondrial activity,"[2]; 5 μmol·L−1, 48 h",25%
same,reduction in mitochondrial activity,"[2]; 10 μmol·L−1, 24 h",40%
same,mitochondrial activity relative to solvent control,"[2]; 100 and 10 μmol·L−1, FIG. 6 (72 and 144 h), p<0.01",significant reduction
same,reduction in mitochondrial activity,[2]; [9],~50%
same,change in total protein content,[3],−15%
same,reduction in total protein content,"[4]; 0.1 μmol·L−1, 24 h",no effect was apparent
same,change in total protein content,"[4]; 10 μmol·L−1, 24 h, significant reduction",−20%
same,reduction in total protein content,"[4]; 1 and 10 μmol·L−1, 24 h (p<0.01)",20%
same,mitochondrial activity,"[5]; 1 μmol·L−1, 24 h","the same trend, but without significance"
same,reduction in mitochondrial activity,"[5]; 10 μmol·L−1, 24 h",30%
same,change in total protein content,"[6]; 10 μmol·L−1, 24 h, decreasing trend, not significant",−27%
same,reduction in total protein content,[6]; [9],~50%
same,change in total protein content,[7],−20%
same,mitochondrial activity,"[8]; 0.1 μmol·L−1, 72 h (p=0.0196)",significant reduction
same,viability (mitochondrial activity),"[8]; 0.1 μmol·L−1, 144 h",restoration of viability to the control level
same,mitochondrial activity,"[8]; 100 and 10 μmol·L−1, 72 and 144 h",significant reduction
same,reduction in mitochondrial activity,[8]; [9],~50%

# Reference: US9290427B2, “Anti-invasive compounds” (Universiteit Gent, priority 2012, dated 2016)
